Assay results published in publication PMC11435058, “Synthesis of New Thiazole-Privileged Chalcones as Tubulin Polymerization Inhibitors with Potential Anticancer Activities” (Pharmaceuticals, 2024).

Legend:
Test in all cases: NCI-60 anticancer screen (SRB; single dose and five doses)
HL-60(TB) = conditions: Homo sapiens
COLO 205 = conditions: Homo sapiens
PC-3 = conditions: Homo sapiens
DU-145 = conditions: Homo sapiens
SK-MEL-5 = conditions: Homo sapiens
RPMI-8226 = conditions: Homo sapiens
MOLT-4 = conditions: Homo sapiens
HCT-15 = conditions: Homo sapiens
SR = conditions: Homo sapiens
IGROV1 = conditions: Homo sapiens
HT29 = conditions: Homo sapiens
MDA-MB-231/ATCC = conditions: Homo sapiens
KM12 = conditions: Homo sapiens
T-47D = conditions: Homo sapiens, T47D

COc1cc(/C=C/C(=O)c2sc(=S)[nH]c2C)cc(OC)c1OC [2p, (E)-1-(4-Methyl-2-Thioxo-2,3-Dihydrothiazol-5-yl)-3-(3,4,5-Trimethoxyphenyl)Prop-2-En-1-One]
activity at 10 µM (HL-60(TB); HL-60, 48 h, read-out: Growth Percentage): 3.95%
CC50 (HL-60(TB); HL-60, read-out: LC50): > 100 µM
IC (TGI) (HL-60(TB); HL-60, read-out: TGI): 11.2 µM
GI50 (COLO 205; COLO 205): 16.2 µM
IC50 (COLO 205; COLO 205): 28.8 µM
activity at 10 µM (COLO 205; COLO 205, 48 h, read-out: Growth Percentage): 81.7%
CC50 (COLO 205; COLO 205, read-out: LC50): 70.8 µM
IC (TGI) (COLO 205; COLO 205, read-out: TGI): 33.9 µM
GI50 (PC-3; PC-3): 5.01 µM
IC50 (PC-3; PC-3): 8.91 µM
activity at 10 µM (PC-3; PC-3, 48 h, read-out: Growth Percentage): 35.7%
CC50 (PC-3; PC-3, read-out: LC50): > 100 µM
IC (TGI) (PC-3; PC-3, read-out: TGI): 41.7 µM
GI50 (DU-145; DU-145): 3.24 µM
IC50 (DU-145; DU-145): 5.75 µM
activity at 10 µM (DU-145; DU-145, 48 h, read-out: Growth Percentage): 12.9%
CC50 (DU-145; DU-145, read-out: LC50): 69.2 µM
IC (TGI) (DU-145; DU-145, read-out: TGI): 15.5 µM
GI50 (SK-MEL-5; SK-MEL-5): 1.58 µM
IC50 (SK-MEL-5; SK-MEL-5): 3.31 µM
activity at 10 µM (SK-MEL-5; SK-MEL-5, 48 h, read-out: Growth Percentage): -64.6%
CC50 (SK-MEL-5; SK-MEL-5, read-out: LC50): 10 µM
IC (TGI) (SK-MEL-5; SK-MEL-5, read-out: TGI): 3.98 µM
GI50 (RPMI-8226; RPMI-8226): 2.19 µM
IC50 (RPMI-8226; RPMI-8226): 4.47 µM
activity at 10 µM (RPMI-8226; RPMI-8226, 48 h, read-out: Growth Percentage): 5.31%
CC50 (RPMI-8226; RPMI-8226, read-out: LC50): > 100 µM
IC (TGI) (RPMI-8226; RPMI-8226, read-out: TGI): 9.12 µM
GI50 (MOLT-4; MOLT-4): 2.88 µM
IC50 (MOLT-4; MOLT-4): 4.17 µM
activity at 10 µM (MOLT-4; MOLT-4, 48 h, read-out: Growth Percentage): 9.11%
CC50 (MOLT-4; MOLT-4, read-out: LC50): > 100 µM
IC (TGI) (MOLT-4; MOLT-4, read-out: TGI): 22.9 µM
GI50 (HCT-15; HCT-15): 3.24 µM
IC50 (HCT-15; HCT-15): 4.17 µM
activity at 10 µM (HCT-15; HCT-15, 48 h, read-out: Growth Percentage): -3.26%
CC50 (HCT-15; HCT-15, read-out: LC50): 74.1 µM
IC (TGI) (HCT-15; HCT-15, read-out: TGI): 15.5 µM
GI50 (SR): 2.34 µM
IC50 (SR): 3.8 µM
CC50 (SR; read-out: LC50): > 100 µM
IC (TGI) (SR; read-out: TGI): 16.2 µM
GI50 (IGROV1; IGROV-1): 3.31 µM
IC50 (IGROV1; IGROV-1): 5.75 µM
CC50 (IGROV1; IGROV-1, read-out: LC50): > 100 µM
IC (TGI) (IGROV1; IGROV-1, read-out: TGI): 13.8 µM
GI50 (HT29; HT-29): 3.47 µM
IC50 (HT29; HT-29): 4.57 µM
activity at 10 µM (HT29; HT-29, 48 h, read-out: Growth Percentage): 40.1%
CC50 (HT29; HT-29, read-out: LC50): > 100 µM
IC (TGI) (HT29; HT-29, read-out: TGI): 13.5 µM
GI50 (MDA-MB-231/ATCC; MDA-MB-231): 3.24 µM
IC50 (MDA-MB-231/ATCC; MDA-MB-231): 10 µM
activity at 10 µM (MDA-MB-231/ATCC; MDA-MB-231, 48 h, read-out: Growth Percentage): 2.51%
CC50 (MDA-MB-231/ATCC; MDA-MB-231, read-out: LC50): > 100 µM
IC (TGI) (MDA-MB-231/ATCC; MDA-MB-231, read-out: TGI): 13.2 µM
GI50 (KM12; KM12): 3.24 µM
IC50 (KM12; KM12): 6.46 µM
activity at 10 µM (KM12; KM12, 48 h, read-out: Growth Percentage): 9.52%
CC50 (KM12; KM12, read-out: LC50): 42.7 µM
IC (TGI) (KM12; KM12, read-out: TGI): 13.8 µM
GI50 (T-47D): 2.19 µM
IC50 (T-47D): 7.24 µM
activity at 10 µM (T-47D; 48 h, read-out: Growth Percentage): -1.59%
CC50 (T-47D; read-out: LC50): > 100 µM
IC (TGI) (T-47D; read-out: TGI): 13.2 µM
